Measured values published in PubChem BioAssay (NCI).
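Interpolation was linear, between the two tested concentrations surrounding the appropriate level; five concentrations were tested over 48 hours in 96-well plates. TGI denotes the concentration required for complete inhibition of growth.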

What was measured:
Assay in all cases: DTP human tumour cell line panel, 48 h
TK-10 renal = system: TK-10 renal
786-0 renal = system: 786-0 renal
A498 renal = system: A498 renal
MDA-MB-231 breast = system: MDA-MB-231 breast
UACC-257 melanoma = system: UACC-257 melanoma
RPMI-8226 leukemia = system: RPMI-8226 leukemia
SF-268 CNS = system: SF-268 CNS
BT-549 breast = system: BT-549 breast
SK-MEL-5 melanoma = system: SK-MEL-5 melanoma
NCI-H226 lung = system: NCI-H226 lung
HOP-92 NSCLC = system: HOP-92 NSCLC
CCRF-CEM leukemia = system: CCRF-CEM leukemia
COLO 205 colon = system: COLO 205 colon
SK-MEL-2 melanoma = system: SK-MEL-2 melanoma
IGROV1 ovarian = system: IGROV1 ovarian
HCT-15 colon = system: HCT-15 colon
OVCAR-5 ovarian = system: OVCAR-5 ovarian
MDA-MB-435 = system: MDA-MB-435
EKVX NSCLC = system: EKVX NSCLC
MDA-N = system: MDA-N
HOP-62 NSCLC = system: HOP-62 NSCLC
LOX IMVI melanoma = system: LOX IMVI melanoma
OVCAR-3 ovarian = system: OVCAR-3 ovarian
SNB-19 CNS = system: SNB-19 CNS
NCI/ADR-RES ovarian = system: NCI/ADR-RES ovarian
HCC-2998 colon = system: HCC-2998 colon
HCT-116 colon = system: HCT-116 colon
UO-31 renal = system: UO-31 renal
HS 578T breast = system: HS 578T breast
SF-539 CNS = system: SF-539 CNS
SW-620 colon = system: SW-620 colon
U251 CNS = system: U251 CNS
NCI-H522 lung = system: NCI-H522 lung
PC-3 prostate = system: PC-3 prostate
OVCAR-8 ovarian = system: OVCAR-8 ovarian
A549 NSCLC = system: A549 NSCLC
M14 melanoma = system: M14 melanoma
SNB-75 CNS = system: SNB-75 CNS
SN12C renal = system: SN12C renal
OVCAR-4 ovarian = system: OVCAR-4 ovarian
DU-145 prostate = system: DU-145 prostate
CAKI-1 renal = system: CAKI-1 renal
MALME-3M melanoma = system: MALME-3M melanoma
NCI-H23 lung = system: NCI-H23 lung
RXF 393 renal = system: RXF 393 renal
SK-MEL-28 melanoma = system: SK-MEL-28 melanoma
SK-OV-3 ovarian = system: SK-OV-3 ovarian
SF-295 CNS = system: SF-295 CNS
NCI-H460 lung = system: NCI-H460 lung
K-562 leukemia = system: K-562 leukemia
T-47D breast = system: T-47D breast
KM12 colon = system: KM12 colon
HT29 colon = system: HT29 colon
ACHN renal = system: ACHN renal
MCF7 breast = system: MCF7 breast
MOLT-4 leukemia = system: MOLT-4 leukemia
UACC-62 melanoma = system: UACC-62 melanoma
HL-60(TB) leukemia = system: HL-60(TB) leukemia

Measured: TGI

CCOC(=O)C1=CC(C)(C(=O)OCC)Nc2c(nc(SC)[nH]c2=O)N1 (centres undefined)
> 10 µM: TK-10 renal | 786-0 renal | A498 renal | MDA-MB-231 breast | UACC-257 melanoma | RPMI-8226 leukemia | SF-268 CNS | BT-549 breast | SK-MEL-5 melanoma | NCI-H226 lung | HOP-92 NSCLC | CCRF-CEM leukemia | COLO 205 colon | SK-MEL-2 melanoma | IGROV1 ovarian | HCT-15 colon | OVCAR-5 ovarian | MDA-MB-435 | EKVX NSCLC | MDA-N | HOP-62 NSCLC | LOX IMVI melanoma | OVCAR-3 ovarian | SNB-19 CNS | NCI/ADR-RES ovarian | HCC-2998 colon | HCT-116 colon | UO-31 renal | HS 578T breast | SF-539 CNS | SW-620 colon | U251 CNS | NCI-H522 lung | PC-3 prostate | OVCAR-8 ovarian | A549 NSCLC | M14 melanoma | SNB-75 CNS | SN12C renal | OVCAR-4 ovarian | DU-145 prostate | CAKI-1 renal | MALME-3M melanoma | NCI-H23 lung | RXF 393 renal | SK-MEL-28 melanoma | SK-OV-3 ovarian | SF-295 CNS | NCI-H460 lung | K-562 leukemia | T-47D breast | KM12 colon | HT29 colon | ACHN renal | MCF7 breast | MOLT-4 leukemia

O=C(O)c1ccc(C=C2Sc3ccccc3S2)cc1
74.2 µM: ACHN renal
81.2 µM: MDA-N
39.6 µM: A498 renal
83 µM: OVCAR-3 ovarian
> 100 µM: TK-10 renal | 786-0 renal | MDA-MB-231 breast | UACC-257 melanoma | RPMI-8226 leukemia | SF-268 CNS | BT-549 breast | SK-MEL-5 melanoma | NCI-H226 lung | HOP-92 NSCLC | CCRF-CEM leukemia | COLO 205 colon | SK-MEL-2 melanoma | IGROV1 ovarian | HCT-15 colon | OVCAR-5 ovarian | HL-60(TB) leukemia | EKVX NSCLC | HOP-62 NSCLC | LOX IMVI melanoma | SNB-19 CNS | NCI/ADR-RES ovarian | HCT-116 colon | UO-31 renal | HS 578T breast | SF-539 CNS | SW-620 colon | U251 CNS | NCI-H522 lung | PC-3 prostate | OVCAR-8 ovarian | A549 NSCLC | M14 melanoma | SN12C renal | OVCAR-4 ovarian | DU-145 prostate | CAKI-1 renal | MALME-3M melanoma | NCI-H23 lung | RXF 393 renal | SK-OV-3 ovarian | SF-295 CNS | NCI-H460 lung | K-562 leukemia | T-47D breast | KM12 colon | HT29 colon | MCF7 breast | MOLT-4 leukemia
95.2 µM: UACC-62 melanoma
42.5 µM: HCC-2998 colon
44.9 µM: MDA-MB-435

CCCCCc1cccc(=O)o1
> 100 µM: TK-10 renal | 786-0 renal | A498 renal | MDA-MB-231 breast | UACC-257 melanoma | RPMI-8226 leukemia | SF-268 CNS | BT-549 breast | SK-MEL-5 melanoma | NCI-H226 lung | HOP-92 NSCLC | CCRF-CEM leukemia | COLO 205 colon | SK-MEL-2 melanoma | IGROV1 ovarian | HCT-15 colon | UACC-62 melanoma | OVCAR-5 ovarian | HL-60(TB) leukemia | MDA-MB-435 | EKVX NSCLC | MDA-N | HOP-62 NSCLC | LOX IMVI melanoma | OVCAR-3 ovarian | SNB-19 CNS | NCI/ADR-RES ovarian | HCC-2998 colon | HCT-116 colon | UO-31 renal | HS 578T breast | SF-539 CNS | SW-620 colon | U251 CNS | NCI-H522 lung | PC-3 prostate | OVCAR-8 ovarian | A549 NSCLC | M14 melanoma | SN12C renal | OVCAR-4 ovarian | DU-145 prostate | CAKI-1 renal | MALME-3M melanoma | NCI-H23 lung | RXF 393 renal | SK-MEL-28 melanoma | SK-OV-3 ovarian | SF-295 CNS | NCI-H460 lung | K-562 leukemia | T-47D breast | KM12 colon | HT29 colon | ACHN renal | MCF7 breast | MOLT-4 leukemia
